Converted amounts (≈) assume the structure as drawn.
system: Cryptococcus neoformans; assay: Antifungal activity against Cryptococcus neoformans after 72 hrs by serial dilution method; type: functional; conditions: not given

SMILES	MIC80
Cc1ccc2c(c1)c1c(n2CCCNCc2ccccc2F)CCCC1	> 64 µg/mL
Cc1ccc2c(c1)c1c(n2CC(O)CNc2ccccc2)CCCC1 (stereo not given)	> 64 µg/mL
Cc1ccc2c(c1)c1c(n2CC(O)CNCc2ccccc2)CCCC1 (stereo not given)	4 µg/mL (≈ 11.5 µM)
Cc1ccc2c(c1)c1c(n2CC(O)CNCc2cccnc2)CCCC1 (stereo not given)	64 µg/mL (≈ 183 µM)
Cc1ccc2c(c1)c1c(n2CCCNC2CCCCC2)CCCC1	> 64 µg/mL
Cc1ccc2c(c1)c1c(n2CCCNc2ccccc2)CCCC1	16 µg/mL (≈ 50.2 µM)
Cc1ccc2c(c1)c1c(n2CCCNCc2ccccc2)CCCC1	1 µg/mL (≈ 3.01 µM)
Cc1ccc2c(c1)c1c(n2CCCNCc2cccnc2)CCCC1	64 µg/mL (≈ 192 µM)
Cc1ccc2c(c1)c1c(n2CCCNCc2ccc(F)cc2)CCCC1	8 µg/mL (≈ 22.8 µM)
Cc1ccc2c(c1)c1c(n2CCCNCc2cccc(F)c2)CCCC1	64 µg/mL (≈ 183 µM)
Cc1ccc2c(c1)c1c(n2CCCNCc2ccc(Cl)cc2)CCCC1	> 64 µg/mL
Cc1ccc2c(c1)c1c(n2CCCNCc2ccccc2Cl)CCCC1	> 64 µg/mL
Cc1ccc2c(c1)c1c(n2CCCNCc2cccc(Cl)c2)CCCC1	32 µg/mL (≈ 87.2 µM)
Cc1ccc(CNCCCn2c3c(c4cc(C)ccc42)CCCC3)cc1	8 µg/mL (≈ 23.1 µM)
COc1ccc(CNCCCn2c3c(c4cc(C)ccc42)CCCC3)cc1	16 µg/mL (≈ 44.1 µM)

system: Aspergillus fumigatus; assay: Antifungal activity against Aspergillus fumigatus after 7 days by serial dilution method; type: functional; conditions: 168 h

SMILES	MIC80
Cc1ccc2c(c1)c1c(n2CCCNCc2ccccc2F)CCCC1	16 µg/mL (≈ 45.7 µM)
Cc1ccc2c(c1)c1c(n2CC(O)CNc2ccccc2)CCCC1 (stereo not given)	> 64 µg/mL
Cc1ccc2c(c1)c1c(n2CC(O)CNCc2ccccc2)CCCC1 (stereo not given)	64 µg/mL (≈ 184 µM)
Cc1ccc2c(c1)c1c(n2CC(O)CNCc2cccnc2)CCCC1 (stereo not given)	64 µg/mL (≈ 183 µM)
Cc1ccc2c(c1)c1c(n2CCCNC2CCCCC2)CCCC1	> 64 µg/mL
Cc1ccc2c(c1)c1c(n2CCCNc2ccccc2)CCCC1	16 µg/mL (≈ 50.2 µM)
Cc1ccc2c(c1)c1c(n2CCCNCc2ccccc2)CCCC1	32 µg/mL (≈ 96.2 µM)
Cc1ccc2c(c1)c1c(n2CCCNCc2cccnc2)CCCC1	64 µg/mL (≈ 192 µM)
Cc1ccc2c(c1)c1c(n2CCCNCc2ccc(F)cc2)CCCC1	32 µg/mL (≈ 91.3 µM)
Cc1ccc2c(c1)c1c(n2CCCNCc2cccc(F)c2)CCCC1	> 64 µg/mL
Cc1ccc2c(c1)c1c(n2CCCNCc2ccc(Cl)cc2)CCCC1	16 µg/mL (≈ 43.6 µM)
Cc1ccc2c(c1)c1c(n2CCCNCc2ccccc2Cl)CCCC1	> 64 µg/mL
Cc1ccc2c(c1)c1c(n2CCCNCc2cccc(Cl)c2)CCCC1	> 64 µg/mL
Cc1ccc(CNCCCn2c3c(c4cc(C)ccc42)CCCC3)cc1	32 µg/mL (≈ 92.3 µM)
COc1ccc(CNCCCn2c3c(c4cc(C)ccc42)CCCC3)cc1	16 µg/mL (≈ 44.1 µM)

system: Trichophyton rubrum; assay: Antifungal activity against Trichophyton rubrum by serial dilution method; type: functional; conditions: not given

SMILES	MIC80
Cc1ccc2c(c1)c1c(n2CCCNCc2ccccc2F)CCCC1	64 µg/mL (≈ 183 µM)
Cc1ccc2c(c1)c1c(n2CC(O)CNCc2ccccc2)CCCC1 (stereo not given)	16 µg/mL (≈ 45.9 µM)
Cc1ccc2c(c1)c1c(n2CCCNc2ccccc2)CCCC1	16 µg/mL (≈ 50.2 µM)
Cc1ccc2c(c1)c1c(n2CCCNCc2ccccc2)CCCC1	4 µg/mL (≈ 12 µM)
Cc1ccc2c(c1)c1c(n2CCCNCc2cccnc2)CCCC1	4 µg/mL (≈ 12 µM)
Cc1ccc2c(c1)c1c(n2CCCNCc2ccc(F)cc2)CCCC1	8 µg/mL (≈ 22.8 µM)
Cc1ccc2c(c1)c1c(n2CCCNCc2cccc(F)c2)CCCC1	64 µg/mL (≈ 183 µM)
Cc1ccc2c(c1)c1c(n2CCCNCc2ccc(Cl)cc2)CCCC1	> 64 µg/mL
Cc1ccc2c(c1)c1c(n2CCCNCc2ccccc2Cl)CCCC1	> 64 µg/mL
Cc1ccc2c(c1)c1c(n2CCCNCc2cccc(Cl)c2)CCCC1	> 64 µg/mL
Cc1ccc(CNCCCn2c3c(c4cc(C)ccc42)CCCC3)cc1	8 µg/mL (≈ 23.1 µM)
COc1ccc(CNCCCn2c3c(c4cc(C)ccc42)CCCC3)cc1	8 µg/mL (≈ 22.1 µM)

system: Candida tropicalis; assay: Antifungal activity against Candida tropicalis after 24 hrs by serial dilution method; type: functional; conditions: not given

SMILES	MIC80
Cc1ccc2c(c1)c1c(n2CCCNCc2ccccc2F)CCCC1	32 µg/mL (≈ 91.3 µM)
Cc1ccc2c(c1)c1c(n2CC(O)CNCc2ccccc2)CCCC1 (stereo not given)	64 µg/mL (≈ 184 µM)
Cc1ccc2c(c1)c1c(n2CCCNc2ccccc2)CCCC1	16 µg/mL (≈ 50.2 µM)
Cc1ccc2c(c1)c1c(n2CCCNCc2ccccc2)CCCC1	32 µg/mL (≈ 96.2 µM)
Cc1ccc2c(c1)c1c(n2CCCNCc2cccnc2)CCCC1	16 µg/mL (≈ 48 µM)
Cc1ccc2c(c1)c1c(n2CCCNCc2ccc(F)cc2)CCCC1	8 µg/mL (≈ 22.8 µM)
Cc1ccc2c(c1)c1c(n2CCCNCc2cccc(F)c2)CCCC1	> 64 µg/mL
Cc1ccc2c(c1)c1c(n2CCCNCc2ccc(Cl)cc2)CCCC1	64 µg/mL (≈ 174 µM)
Cc1ccc2c(c1)c1c(n2CCCNCc2ccccc2Cl)CCCC1	> 64 µg/mL
Cc1ccc2c(c1)c1c(n2CCCNCc2cccc(Cl)c2)CCCC1	> 64 µg/mL
Cc1ccc(CNCCCn2c3c(c4cc(C)ccc42)CCCC3)cc1	16 µg/mL (≈ 46.2 µM)
COc1ccc(CNCCCn2c3c(c4cc(C)ccc42)CCCC3)cc1	8 µg/mL (≈ 22.1 µM)

system: Candida parapsilosis; assay: Antifungal activity against Candida parapsilosis after 24 hrs by serial dilution method; type: functional; conditions: Lodderomyces parapsilosis

SMILES	MIC80
Cc1ccc2c(c1)c1c(n2CCCNCc2ccccc2F)CCCC1	> 64 µg/mL
Cc1ccc2c(c1)c1c(n2CC(O)CNCc2ccccc2)CCCC1 (stereo not given)	64 µg/mL (≈ 184 µM)
Cc1ccc2c(c1)c1c(n2CCCNc2ccccc2)CCCC1	16 µg/mL (≈ 50.2 µM)
Cc1ccc2c(c1)c1c(n2CCCNCc2ccccc2)CCCC1	16 µg/mL (≈ 48.1 µM)
Cc1ccc2c(c1)c1c(n2CCCNCc2cccnc2)CCCC1	64 µg/mL (≈ 192 µM)
Cc1ccc2c(c1)c1c(n2CCCNCc2ccc(F)cc2)CCCC1	32 µg/mL (≈ 91.3 µM)
Cc1ccc2c(c1)c1c(n2CCCNCc2cccc(F)c2)CCCC1	64 µg/mL (≈ 183 µM)
Cc1ccc2c(c1)c1c(n2CCCNCc2ccc(Cl)cc2)CCCC1	32 µg/mL (≈ 87.2 µM)
Cc1ccc2c(c1)c1c(n2CCCNCc2ccccc2Cl)CCCC1	> 64 µg/mL
Cc1ccc2c(c1)c1c(n2CCCNCc2cccc(Cl)c2)CCCC1	> 64 µg/mL
Cc1ccc(CNCCCn2c3c(c4cc(C)ccc42)CCCC3)cc1	32 µg/mL (≈ 92.3 µM)
COc1ccc(CNCCCn2c3c(c4cc(C)ccc42)CCCC3)cc1	16 µg/mL (≈ 44.1 µM)

system: Candida albicans; assay: Antifungal activity against Candida albicans after 24 hrs by serial dilution method; type: functional; conditions: not given

SMILES	MIC80
Cc1ccc2c(c1)c1c(n2CCCNCc2ccccc2F)CCCC1	> 64 µg/mL
Cc1ccc2c(c1)c1c(n2CC(O)CNc2ccccc2)CCCC1 (stereo not given)	> 64 µg/mL
Cc1ccc2c(c1)c1c(n2CC(O)CNCc2ccccc2)CCCC1 (stereo not given)	16 µg/mL (≈ 45.9 µM)
Cc1ccc2c(c1)c1c(n2CC(O)CNCc2cccnc2)CCCC1 (stereo not given)	> 64 µg/mL
Cc1ccc2c(c1)c1c(n2CCCNC2CCCCC2)CCCC1	> 64 µg/mL
Cc1ccc2c(c1)c1c(n2CCCNc2ccccc2)CCCC1	64 µg/mL (≈ 201 µM)
Cc1ccc2c(c1)c1c(n2CCCNCc2ccccc2)CCCC1	16 µg/mL (≈ 48.1 µM)
Cc1ccc2c(c1)c1c(n2CCCNCc2cccnc2)CCCC1	64 µg/mL (≈ 192 µM)
Cc1ccc2c(c1)c1c(n2CCCNCc2ccc(F)cc2)CCCC1	64 µg/mL (≈ 183 µM)
Cc1ccc2c(c1)c1c(n2CCCNCc2cccc(F)c2)CCCC1	> 64 µg/mL
Cc1ccc2c(c1)c1c(n2CCCNCc2ccc(Cl)cc2)CCCC1	> 64 µg/mL
Cc1ccc2c(c1)c1c(n2CCCNCc2ccccc2Cl)CCCC1	> 64 µg/mL
Cc1ccc2c(c1)c1c(n2CCCNCc2cccc(Cl)c2)CCCC1	> 64 µg/mL
Cc1ccc(CNCCCn2c3c(c4cc(C)ccc42)CCCC3)cc1	32 µg/mL (≈ 92.3 µM)
COc1ccc(CNCCCn2c3c(c4cc(C)ccc42)CCCC3)cc1	32 µg/mL (≈ 88.3 µM)

system: Nannizzia gypsea; assay: Antifungal activity against Microsporum gypseum by serial dilution method; type: functional; conditions: not given

SMILES	MIC80
Cc1ccc2c(c1)c1c(n2CC(O)CNc2ccccc2)CCCC1 (stereo not given)	1 µg/mL (≈ 2.99 µM)
Cc1ccc2c(c1)c1c(n2CC(O)CNCc2ccccc2)CCCC1 (stereo not given)	16 µg/mL (≈ 45.9 µM)
Cc1ccc2c(c1)c1c(n2CC(O)CNCc2cccnc2)CCCC1 (stereo not given)	16 µg/mL (≈ 45.8 µM)
Cc1ccc2c(c1)c1c(n2CCCNC2CCCCC2)CCCC1	4 µg/mL (≈ 12.3 µM)
Cc1ccc2c(c1)c1c(n2CCCNc2ccccc2)CCCC1	0.0625 µg/mL (≈ 0.196 µM)
Cc1ccc2c(c1)c1c(n2CCCNCc2ccccc2)CCCC1	0.0156 µg/mL (≈ 0.0469 µM)
Cc1ccc2c(c1)c1c(n2CCCNCc2cccnc2)CCCC1	0.0625 µg/mL (≈ 0.187 µM)

system: Kluyveromyces marxianus; assay: Antifungal activity against Candida kefyr after 24 hrs by serial dilution method; type: functional; conditions: not given

SMILES	MIC80
Cc1ccc2c(c1)c1c(n2CCCNCc2ccccc2F)CCCC1	16 µg/mL (≈ 45.7 µM)
Cc1ccc2c(c1)c1c(n2CC(O)CNCc2ccccc2)CCCC1 (stereo not given)	64 µg/mL (≈ 184 µM)
Cc1ccc2c(c1)c1c(n2CCCNc2ccccc2)CCCC1	16 µg/mL (≈ 50.2 µM)
Cc1ccc2c(c1)c1c(n2CCCNCc2ccccc2)CCCC1	32 µg/mL (≈ 96.2 µM)
Cc1ccc2c(c1)c1c(n2CCCNCc2cccnc2)CCCC1	16 µg/mL (≈ 48 µM)
Cc1ccc2c(c1)c1c(n2CCCNCc2ccc(F)cc2)CCCC1	16 µg/mL (≈ 45.7 µM)
Cc1ccc2c(c1)c1c(n2CCCNCc2cccc(F)c2)CCCC1	> 64 µg/mL
Cc1ccc2c(c1)c1c(n2CCCNCc2ccc(Cl)cc2)CCCC1	16 µg/mL (≈ 43.6 µM)
Cc1ccc2c(c1)c1c(n2CCCNCc2ccccc2Cl)CCCC1	> 64 µg/mL
Cc1ccc2c(c1)c1c(n2CCCNCc2cccc(Cl)c2)CCCC1	64 µg/mL (≈ 174 µM)
Cc1ccc(CNCCCn2c3c(c4cc(C)ccc42)CCCC3)cc1	16 µg/mL (≈ 46.2 µM)
COc1ccc(CNCCCn2c3c(c4cc(C)ccc42)CCCC3)cc1	16 µg/mL (≈ 44.1 µM)

From ChEMBL document CHEMBL3132778, “Structureactivity relationships of tetrahydrocarbazole derivatives as antifungal lead compounds” (Medchemcomm, 2013)
